Data reported in patent publication US4576962A, “Prostaglandin analogues” (priority 1984, dated 1986).

Key:
[1] = background art; cited from earlier work
PGDH = details: Gandolfi et al.; cited from earlier work
stomach mucosa = assay: cytoprotective activity in rats (absolute ethanol induced stomach mucosa lesions); assay type: in vivo, Sprague-Dawley rats; details: for ED50 / Cytoprotection %: rat, oral; for ED50: read-out: ED50 Cytoprotection
Method: A number of the 13,14-didehydro-15-oxo-prostaglandin analogues have been tested for cytoprotective activity in rats. In this test, Sprague-Dawley rats were fasted for 24 hours prior to the pretreatment. […] The control animals were given 2.5 ml of the vehicle, without prostaglandin analogue. A half hour later after the pretreatment, absolute ethanol was administered orally to the animals, in a dose of 10 mL per kg body weight. One hour later the animals were sacrificed, their stomachs dissected out, opened along the greater curvature and the mucosa examined for lesions. The average lesion length is expressed as percentage of the average lesion length found in the stomach mucosa of control animals.
Importantly, this test measures the active cytoprotective properties of the prostaglandin analogues, independent of the gastric secretion inhibition that these compounds may or may not show. The test is discussed more fully by Robert et al., Gastroenterology 77 (1979) 433, incorporated herein by reference.

[2] = metabolism / intragastric dehydrogenation at C15; cited from earlier work
small intestine = assay: enteropooling assay (diarrheogenic effect, Robert); assay type: in vivo
Text: (§1) One of the most important side-effects of prostaglandins and prostaglandin analogues is their diarrheogenic effect. An assay was developed by Robert to test the diarrheogenic properties of prostaglandins and prostaglandin analogues. The test quantitatively determines the amount of "enteropooling", i.e. the accumulation of fluid into the small intestine.

[3] = enteropooling assay (diarrheogenic effect, Robert); assay type: in vivo; details: in vivo; for selectivity ratio: enteropooling dose relative to ED50 cytoprotection, defined in drawing 10, read-out: TI (therapeutic index)
Text: as §1

gastric ulceration [4] = assay: gastric ulceration in patients, capsules administered twice daily; assay type: in vivo; details: patient ca. 70 kg
gastric ulceration [5] = assay: gastric ulceration in arthritis patients receiving aspirin, tablets four times daily; assay type: in vivo; details: tablets orally four times daily; patients with arthritis on 1000 mg aspirin daily
[6] = rat model; compared to natural prostaglandin PGE2; cited from earlier work
rat fundic strip = assay: smooth muscle contraction, rat fundic strip assay
Method: The smooth muscle contraction potency of compound 1 was tested in the rat fundic strip assay, described by W. L. M. Perry in "Pharmacological Experiments on Isolated Preparations," 2nd ed. (1970), pp. 88-89, Churchill L. Livingstone, publisher.

pregnant quinea pigs = assay: abortificative effect in pregnant guinea pigs; assay type: in vivo; details: 25 mg/kg oral, days 43 and 44 of gestation, 6 animals
Method: Another important side effect of natural prostaglandins and prostaglandin analogues is their abortificative effect. Compound 1 was tested for this effect as follows.

[7] = dose 0.5 mg/kg, negative = lesions worse than control

In the case of `CCCC[C@@H](C)[C@H](O)C#C[C@H]1[C@H](O)CC(=O)[C@@H]1C/C=C\CCCC(=O)O` [16(R),16-methyl-13-dehydro PGE2], the “gastric anti-ulcer properties / activity” value [1] is given as “potent gastric anti-ulcer properties” and the “substrate for the enzyme PGDH” value (PGDH) is given as “not substrates for the enzyme PGDH”.
For `CCCCC[C@H](O)/C=C/[C@H]1[C@H](O)CC(=O)[C@@H]1C/C=C\CCCC(=O)O` [PGE2], the ED50 (stomach mucosa) is given as 0.025 mg/kg, the “stability” value [2] is given as “readily metabolized” and the “Enteropooling Dose (ED50 for enteropooling)” value (small intestine; in vivo) is given as 0.750 mg/kg. It also gave a selectivity ratio [3] of 30.
For `CCCCCC(=O)C#C[C@H]1[C@H](O)CC(=O)[C@@H]1CCCCCCC(=O)O` [13,14-didehydro-15-oxo PGE1], the “reduction of gastric ulceration” value (gastric ulceration [4]) was “substantially reduce gastric ulceration”.
Work on `CCCCC[C@H](O)/C=C/[C@@H]1[C@@H](C/C=C\CCCC(=O)OC)[C@@H](O)C[C@H]1O` [PGF2α trans OH (a)] yielded a Cytoprotection % (stomach mucosa; dose 0.001 mg/kg) of -19%, a Cytoprotection % (stomach mucosa; dose 0.01 mg/kg) of 1.7% and a Cytoprotection % (stomach mucosa; dose 0.1 mg/kg) of -17%. For the same compound, the Cytoprotection % (stomach mucosa; [7]) was 82%.
`CCCCCC(=O)/C=C/[C@H]1CCC(=O)[C@@H]1CCCCCCC(=O)OC` (relative stereo) [PGE1 trans oxo (a) (d)] showed a Cytoprotection % (stomach mucosa; [7]) of -22% and a Cytoprotection % (stomach mucosa; dose 3 mg/kg) of 52%.
With `CCCCCC(=O)C#C[C@@H]1[C@@H](C/C=C\CCCC(=O)O)[C@@H](O)C[C@H]1O` [13,14-didehydro-15-oxo-PGF2α] the “reduction of incidence of gastric ulceration” value (gastric ulceration [5]) was “effectively reduces the incidence of gastric ulceration”.
In the case of `CCCCC[C@@](C)(O)/C=C/[C@H]1[C@H](O)CC(=O)[C@@H]1C/C=C\CCCC(=O)O` [15(R)-15-methyl PGE2], the “ED50 for cytoprotection” value [6] is given as “lower value of the ED50”, the “stability” value [2] is given as “better stability” and the TD50 [3] is given as 0.005 mg/kg. For the same compound, the selectivity ratio [3] was 25 to 100.
In the case of `CCCCC(C)(C)[C@H](O)/C=C/[C@H]1[C@H](O)CC(=O)[C@@H]1C/C=C\CCCC(=O)O` [16,16-dimethyl PGE2], the “ED50 for cytoprotection” value [6] is listed as “lower value of the ED50”, the TD50 [3] is listed as 0.0005 mg/kg and the selectivity ratio [3] is listed as 10.
In the case of `CCCCCC(=O)C#C[C@H]1CCC(=O)[C@@H]1CCCCCCC(=O)O` (relative stereo) [Compound 1, 11-Deoxy-13,14-didehydro-15-oxo PGE1], the ED50 (stomach mucosa) is reported as 0.1 mg/kg, the “EC50 for smooth muscle contraction relative to PGE2” value (rat fundic strip; compound 1 EC50 higher than that of PGE2) is reported as “three orders of magnitude higher” and the “EC50 for smooth muscle contraction relative to PGF2α and PGE1” value (rat fundic strip; compound 1 EC50 higher than that of PGF2α and PGE1) is reported as “two orders of magnitude higher”. The EC50 (rat fundic strip; rat fundic strip) was 5 µM, the “diarrheogenic effect” value (small intestine; compared to PGE2 and PGE2 analogues) was “very low diarrheogenic effect” and the “therapeutic index” value (small intestine; compared with the other compounds of table 2) was “significantly higher”. The TD50 [3] was 25 mg/kg, the selectivity ratio [3] was 250 and the abortion induced (pregnant quinea pigs) was “in none of the animals did the dose of compound 1 induce abortion”.
In the case of `CCCCCC(=O)C#C[C@@H]1[C@@H](C/C=C\CCCC(=O)OC)[C@@H](O)C[C@H]1O` [PGF2α triple oxo (a), 13,14-didehydro-15-keto PGF2α methyl ester], the “cytoprotective potency” value (stomach mucosa; compared with PGF2α itself (tests nos. 7-10)) is reported as “much more potent cytoprotective agent”, the Cytoprotection % (stomach mucosa; dose 0.001 mg/kg) is reported as 6% and the Cytoprotection % (stomach mucosa; dose 0.01 mg/kg) is reported as 23%. The Cytoprotection % (stomach mucosa; dose 0.1 mg/kg) was 50% and the Cytoprotection % (stomach mucosa; [7]) was 98%.
In the case of `CCCCC[C@](C)(O)/C=C/[C@H]1[C@H](O)CC(=O)[C@@H]1C/C=C\CCCC(=O)O` [15(S),15-methyl PGE2], the “stability” value [2] is listed as “more stable than PGE2 itself”.
In the case of `CCCC[C@H](C)[C@H](O)C#C[C@H]1[C@H](O)CC(=O)[C@@H]1C/C=C\CCCC(=O)O` [16(S),16-methyl-13-dehydro PGE2], the “gastric anti-ulcer properties / activity” value [1] is listed as “potent gastric anti-ulcer properties” and the “substrate for the enzyme PGDH” value (PGDH) is listed as “not substrates for the enzyme PGDH”.
For `CCCCCC(=O)C#C[C@H]1CCC(=O)[C@@H]1CCCCCCC(=O)OC` (relative stereo) [PGE1 triple oxo (a) (d)], the Cytoprotection % (stomach mucosa; [7]) was 39%, the Cytoprotection % (stomach mucosa; dose 1 mg/kg) was 81% and the Cytoprotection % (stomach mucosa; dose 3 mg/kg) was 78%. It also gave a Cytoprotection % (stomach mucosa; dose 5 mg/kg) of 96%.
